Experimental findings from paper PMC12231361, “KETAMIR-2, a new molecular entity and novel ketamine analog” (Frontiers in Pharmacology, 2025) are described below.

This experiment concerns the target T1, PCP site on NMDA receptor.
T1 construct: gene Grin1; PCP (channel pore) site of the NMDA receptor complex
The experiment in a line: PCP-site binding assay. Conditions: read-out: PCP site / IC50/Ki. From the text:
PCP-site binding assay on PCP site on NMDA receptor

For the compound Nor-Ketamir, the IC50 is roughly 470 µM.

Take `CNC1(c2ccccc2Cl)CCCC1=O` (centres unmarked) [Ketamir-2, 1-(2-chlorophenyl)-N-methyl-2-oxocyclopentan-1-aminium]: the IC50 is roughly 100 µM.
